Results reported in article PMC8997995, “Amphiphilic Cell-Penetrating Peptides Containing Natural and Unnatural Amino Acids as Drug Delivery Agents” (Cells, 2022).
Non-standard residues stand in square brackets, D forms with d. Residues, ends and D or L forms follow the SMILES beside them. Dip = N[C@H](C(=O)O)C(c1ccccc1)c1ccccc1

How the values were obtained:
HEK-293 cells = type: cell-based, human; conditions: HEK-293, 25 µM, 24 h incubation, MTS
Method: (§1) SK-OV-3, CCRF-CEM, HEK-293, MDA-MB-468, LLC-PK1, and MES-SA were used to determine the cytotoxicity of the synthesized linear and cyclic peptides. About 5000, 10,000, and 50,000 cells were seeded for SK-OV-3, HEK-293, and CCRF-CEM cells, respectively, in 0.1 mL of medium per well of 96-well plates. […]
(§2) Adhesive cells were detached with 0.05% trypsin/EDTA after 15 min. […] The cell viability was measured by utilizing Multi-Mode Microplate Reader (SpectraMax M5 model, Molecular Devices, San Jose, CA, USA) after adding 20 µL of the MTS reagent to each well and incubating for 3 additional hours. […] The percentage of cell viability was calculated using the following equation:(1) =(Average OD values of samples treated with the compound /Average OD values of no treatment samples )∗100

LLC-PK1 cells = assay: In vitro cytotoxicity (MTS) in LLC-PK1 cells; type: cell-based, pig; conditions: LLC-PK1, 10 µM, 24 h and 72 h incubation
Method: as §1, §2

MDA-MB-231 cells = assay: Cellular uptake of F’-siRNA by flow cytometry in MDA-MB-231 cells; type: cell-based, human; conditions: MDA-MB-231, F’-siRNA 36 nM, n = 3
MES-SA cells = assay: In vitro cytotoxicity (MTS) in MES-SA cells; type: cell-based, human; conditions: 10 µM, 24 h incubation, n = 3
Method: as §1, §2

MDA-MB-468 cells = assay: In vitro cytotoxicity (MTS) in MDA-MB-468 cells; type: cell-based, human; conditions: MDA-MB-468, 10 µM, 24 h and 72 h incubation
Method: as §1, §2

CCRF-CEM cells = assay: In vitro cytotoxicity (MTS) in CCRF-CEM cells; type: cell-based, human; conditions: 25 µM, MTS, n = 3
Method: SK-OV-3, CCRF-CEM, HEK-293, MDA-MB-468, LLC-PK1, and MES-SA were used to determine the cytotoxicity of the synthesized linear and cyclic peptides. About 5000, 10,000, and 50,000 cells were seeded for SK-OV-3, HEK-293, and CCRF-CEM cells, respectively, in 0.1 mL of medium per well of 96-well plates. An appropriate medium was used for each cell line (SK-OV-3: McCoy’s 5A with L-glutamine containing fetal bovine serum (FBS) (10%) and penicillin or streptomycin (1%); CCRF-CEM: RPMI-1640 medium with L-glutamine and sodium bicarbonate containing FBS (10%) and penicillin or streptomycin (1%); MDA-MB-468 cells: DMEM/F12 (1:1) (1×) with L-glutamine and 15 mM HEPES containing FBS (10%) and penicillin or streptomycin (1%); LLC-PK1 cells: Dulbecco’s Modified Eagle’s Medium with 4500 mg/L glucose, L-glutamine and sodium bicarbonate, without sodium pyruvate liquid containing FBS (10%) and penicillin or streptomycin (1%); MES-SA cells: consisting of half SK-OV-3 and half CCRF-CEM media; and HEK-293 cells: Minimum Essential Medium Eagle with Earle’s salts and sodium bicarbonate, without L-glutamine containing FBS (10%) and penicillin or streptomycin (1%)). Then, 20 µL of peptides containing 5% DMSO in water were added to each well.
Adhesive cells were detached with 0.05% trypsin/EDTA after 15 min. The suspended cells were seeded in the medium 24 h prior to the experiment according to the previously reported procedure. The medium was changed before adding the peptides for adherent cells. Each concentration 5, 10, 25, 50, and 166 µM (containing 0.8% DMSO) had triplicate wells to minimize possible errors. […] The cell viability was measured by utilizing Multi-Mode Microplate Reader (SpectraMax M5 model, Molecular Devices, San Jose, CA, USA) after adding 20 µL of the MTS reagent to each well and incubating for 3 additional hours. […] The protocol manager was selected “endpoint” on the spectrophotometer’s software (SoftMax Pro 7). The 96-well plates were inserted inside spectrophotometer, and the data were acquired. The percentage of cell viability was calculated using the following equation:(1) =(Average OD values of samples treated with the compound /Average OD values of no treatment samples )∗100

In the case of `N=C(N)NCCC[C@@H]1NC(=O)[C@H](C(c2ccccc2)c2ccccc2)NC(=O)[C@H](CCCNC(=N)N)NC(=O)[C@H](C(c2ccccc2)c2ccccc2)NC(=O)[C@H](CCCNC(=N)N)NC(=O)[C@H](C(c2ccccc2)c2ccccc2)NC(=O)[C@H](CCCNC(=N)N)NC(=O)[C@H](C(c2ccccc2)c2ccccc2)NC(=O)[C@H](CCCNC(=N)N)NC(=O)[C@H](C(c2ccccc2)c2ccccc2)NC1=O` [[DipR]5] (cyclo([Dip]R[Dip]R[Dip]R[Dip]R[Dip]R)), the “reduction of cell proliferation” value (HEK-293 cells) is reported as 56%, the cytotoxicity (LLC-PK1 cells) is reported as “no significant cytotoxicity” and the “increase of cellular uptake of F’-siRNA vs siRNA alone” value (MDA-MB-231 cells; N/P ratio 10, 24 h) is reported as 30 fold. For the same molecule, the “increase of cellular uptake of F’-siRNA vs siRNA alone” value (MDA-MB-231 cells; N/P ratio 20, 24 h) was 50 fold, the “reduction of cell proliferation” value (MES-SA cells) was 38% and the cytotoxicity (MDA-MB-468 cells) was “no significant cytotoxicity”. For the same molecule, the “reduction of cell proliferation” value (CCRF-CEM cells; 24 h incubation) was 64% and the “reduction of cell proliferation” value (CCRF-CEM cells; 72 h incubation) was 84%.
